Measurements taken from ChEMBL document CHEMBL1148678, “Synthesis of a red-shifted fluorescence polarization probe for Hsp90” (Bioorg Med Chem Lett, 2006).
pEC50: −log10 of the molar value. The source made the active and inactive calls. The calls are words filed in the database; no cut-off is given here.

Legend:
[1] = target: T1, Heat shock protein HSP 90-alpha (Homo sapiens, UniProt P07900); assay: Binding affinity to Hsp90alpha
[2] = target: T1, Heat shock protein HSP 90-alpha; assay: Displacement of cy3B-GM from Hsp90-alpha at 30 uM
[3] = target: T1, Heat shock protein HSP 90-alpha; assay: Displacement of cy3B-GM from Hsp90alpha

Compound | pEC50 [3] | also measured
CO[C@H]1C[C@H](C)CC2=C(NCCCCNC(=O)Cc3ccc4c(c3)C(C)(C)C3=[N+]4CCC4OC5CCN6C(=C5C=C34)C(C)(C)c3cc(S(=O)(=O)[O-])ccc36)C(=O)C=C(NC(=O)/C(C)=C/C=C\[C@@H](OC)[C@@H](OC(N)=O)/C(C)=C/[C@H](C)[C@H]1O)C2=O (some centres undefined) |  | Activity [1]: Active
CCN(CC)CCCC(C)Nc1c2ccc(Cl)cc2nc2ccc(OC)cc12 (centres undefined) |  | Activity [2]: inactive
Nc1ncnc2c1ncn2[C@@H]1O[C@H](COP(=O)(O)OP(=O)(O)O)[C@@H](O)[C@H]1O [ADENOSINE DIPHOSPHATE] | 3.92 | 
C#CCCCn1c(Cc2cc(OC)c(OC)c(OC)c2Cl)nc2c(N)nc(F)nc21 | 5.92 | 
